The target of series [1] is T1, NAD-dependent protein deacetylase sirtuin-1 (Homo sapiens) (UniProt Q96EB6).
T1 sequence (whole entry): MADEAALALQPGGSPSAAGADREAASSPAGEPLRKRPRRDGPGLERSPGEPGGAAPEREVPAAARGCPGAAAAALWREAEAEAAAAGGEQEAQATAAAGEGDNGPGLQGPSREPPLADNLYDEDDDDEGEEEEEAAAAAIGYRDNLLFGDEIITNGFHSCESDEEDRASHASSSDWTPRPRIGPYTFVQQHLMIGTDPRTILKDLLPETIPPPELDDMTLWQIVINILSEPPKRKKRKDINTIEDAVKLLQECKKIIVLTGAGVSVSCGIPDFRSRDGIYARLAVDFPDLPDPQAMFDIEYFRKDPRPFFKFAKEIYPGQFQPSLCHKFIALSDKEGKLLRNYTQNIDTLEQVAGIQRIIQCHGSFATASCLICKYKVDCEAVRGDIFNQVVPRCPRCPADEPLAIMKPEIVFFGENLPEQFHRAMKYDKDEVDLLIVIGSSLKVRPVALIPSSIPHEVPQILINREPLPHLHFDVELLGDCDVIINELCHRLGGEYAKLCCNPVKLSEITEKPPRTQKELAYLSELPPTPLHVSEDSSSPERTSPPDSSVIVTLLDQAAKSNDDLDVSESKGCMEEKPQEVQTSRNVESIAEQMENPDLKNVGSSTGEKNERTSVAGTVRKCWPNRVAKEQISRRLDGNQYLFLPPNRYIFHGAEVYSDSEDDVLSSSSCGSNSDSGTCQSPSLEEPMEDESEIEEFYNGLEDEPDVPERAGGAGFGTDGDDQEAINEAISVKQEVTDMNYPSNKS
Briefly: Activation of SIRT1 (unknown origin) assessed as increase in NAD-dependent deacetylase activity using fluoro-substrate peptide by fluorometric assay relative to resveratrol.

Series [2] relates to Mus musculus. In words: Activation of SIRT1 in C57BLKS/J-db/db mouse assessed as reduction in p53 acetylation at 5 mg/kg/day dosed via oral gavage for 4 weeks by Western blot method. In kind it is functional, organism-based. Background: In western blotting, separated proteins are transferred to a membrane and probed.
The test system of series [3] is Mus musculus. In words: Effect on body weight in C57BLKS/J-db/db mouse at 5 mg/kg/day dosed via oral gavage for 30 days. As to conditions: in vivo, 720 h. In kind it is ADME, organism-based.
Series [4] deals with Mus musculus. In words: Effect on food intake in C57BLKS/J-db/db mouse at 5 mg/kg/day dosed via oral gavage for 30 days. The series is classed as ADME, organism-based. As to conditions: in vivo, 720 h.
Series [5] has as its system Mus musculus. In words: Reduction in serum triglyceride level in C57BLKS/J-db/db mouse at 5 mg/kg/day dosed via oral gavage for 30 days by colorimetric assay. The series is classed as functional, organism-based.
For series [6], the system named is Mus musculus. In words: Reduction in serum total cholesterol level in C57BLKS/J-db/db mouse at 5 mg/kg/day dosed via oral gavage for 30 days by colorimetric assay. In kind it is functional, organism-based.
Series [7] relates to Mus musculus. Briefly: Reduction in serum NEFA level in C57BLKS/J-db/db mouse at 5 mg/kg/day dosed via oral gavage for 30 days by colorimetric assay. In kind it is functional, organism-based.
Series [8] has as its system Mus musculus. Briefly: Improvement in insulin resistance in C57BLKS/J-db/db mouse assessed as change in glucose level at 5 mg/kg/day dosed via oral gavage for 3 weeks by oral glucose tolerance test. The series is classed as functional, organism-based.
The test system of series [9] is Mus musculus. Briefly: Improvement in insulin resistance in C57BLKS/J-db/db mouse assessed as reduction in fasting serum glucose level at 5 mg/kg/day dosed via oral gavage for 3 weeks by oral glucose tolerance test. In kind it is functional, organism-based.
Series [10] relates to Mus musculus. Briefly: Improvement in insulin resistance in C57BLKS/J-db/db mouse assessed as reduction in serum insulin level at 5 mg/kg/day dosed via oral gavage for 3 weeks by oral glucose tolerance test. The series is classed as functional, organism-based.
For series [11], the system named is Mus musculus. Briefly: Improvement in insulin resistance in C57BLKS/J-db/db mouse assessed as restoration of liver IRS1 Tyr465 phosphorylation at 5 mg/kg/day dosed via oral gavage for 3 weeks during oral glucose tolerance test by Western blot. The series is classed as functional, organism-based.
Series [12] concerns Mus musculus. Briefly: Improvement in insulin resistance in C57BLKS/J-db/db mouse assessed as restoration of liver Akt Ser473 phosphorylation at 5 mg/kg/day dosed via oral gavage for 3 weeks during oral glucose tolerance test by Western blot. The series is classed as functional, organism-based.
Series [13] concerns Mus musculus. Briefly: Suppression of hepatic steatosis in C57BLKS/J-db/db mouse assessed as reduction in liver lipid droplets at 5 mg/kg/day dosed via oral gavage for 4 weeks by hematoxylin-eosin staining based assay. The series is classed as functional, organism-based.
Series [14] deals with Mus musculus. In words: Reduction in hepatic triglyceride level in C57BLKS/J-db/db mouse at 5 mg/kg/day dosed via oral gavage for 4 weeks by colorimetric assay. The series is classed as functional, organism-based.
The test system of series [15] is Mus musculus. Briefly: Reduction in hepatic SREBP-1c mRNA expression in C57BLKS/J-db/db mouse at 5 mg/kg/day dosed via oral gavage for 4 weeks by qRT-PCR method. In kind it is functional, organism-based. For orientation: Real-time PCR tracks product formation cycle by cycle.
Series [16] has as its system Mus musculus. In words: Reduction in hepatic SREBP-1a mRNA expression in C57BLKS/J-db/db mouse at 5 mg/kg/day dosed via oral gavage for 4 weeks by qRT-PCR method. The series is classed as functional, organism-based.
The subject of series [17] is Mus musculus. Briefly: Reduction in hepatic FASN mRNA expression in C57BLKS/J-db/db mouse at 5 mg/kg/day dosed via oral gavage for 4 weeks by qRT-PCR method. The series is classed as functional, organism-based.
The test system of series [18] is Mus musculus. In words: Reduction in hepatic ACC mRNA expression in C57BLKS/J-db/db mouse at 5 mg/kg/day dosed via oral gavage for 4 weeks by qRT-PCR method. The series is classed as functional, organism-based.
In series [19] the test system is Mus musculus. Briefly: Effect on beta-oxidation related gene expression in C57BLKS/J-db/db mouse assessed as CPT1 mRNA expression at 5 mg/kg/day dosed via oral gavage for 4 weeks by qRT-PCR method. The series is classed as functional, organism-based.
Series [20] relates to Mus musculus. Briefly: Effect on beta-oxidation related gene expression in C57BLKS/J-db/db mouse assessed as ACOX1 mRNA expression at 5 mg/kg/day dosed via oral gavage for 4 weeks by qRT-PCR method. The series is classed as functional, organism-based.

The source made the active and inactive calls. The rule behind the calls is not given here.

Turning to `O=C(Nc1ccccc1-c1nc2cc(CN3CCN(C4CCCCC4)CC3)ccc2o1)c1ccc2ccccc2c1`, the fold change (FC) in series [1] is 1.5. In addition, the result in the series with Mus musculus [2], with Mus musculus [5], with Mus musculus [6], with Mus musculus [7], with Mus musculus [8] and in the series on Mus musculus [9] was Active. The outcome with Mus musculus [10], in the series on Mus musculus [11], in the series with Mus musculus [12], in the series with Mus musculus [13], in the series on Mus musculus [14] and with Mus musculus [15] was Active. Also, the result in the series on Mus musculus [16], in the series on Mus musculus [17] and in the series on Mus musculus [18] was Active. The Activity result with Mus musculus [3] and with Mus musculus [4] was “Non-Toxic” throughout. Further, the result in the series with Mus musculus [19] and in the series on Mus musculus [20] was inactive.

Source of the values: ChEMBL document CHEMBL4184254, “Novel SIRT1 activator MHY2233 improves glucose tolerance and reduces hepatic lipid accumulation in db/db mice” (Bioorg Med Chem Lett, 2018).
